Measured values published in patent US7671058B2, “N-(3,4-disubstituted phenyl) salicylamide derivatives” (Institute of Medicinal Molecular Design, Inc., priority 2006, dated 2010).
Like-named read-outs stand apart in the source and are kept apart here.

Experiments:
NF-κB = NF-κB inhibition test: pNFκB-Luc luciferase reporter in U2-OS cells stimulated with human TNF α; type: cell-based; conditions: human TNF α 10 ng/mL; for Inhibition Rate of NF-κB (%) / inhibition at 2 µM: compound 2 μM, 8 hours; for IC50: from inhibition rates at 1, 0.1, 0.01 and 0.001 μM, read-out: IC50 against activation of NF-κB; for inhibition at 2 µM: read-out: Inhibition Rate of NF-κB (%)
Protocol: (1) Transfection to U2-OS Cells and Inhibition Test of Activation
U2-OS cells were seeded at 2×10^4 cells/well in 96-well culture plate, and transfection was carried out using FuGENE 6 Transfection Reagent (Roche Diagnostics GmbH). The procedures of the transfection are shown below.
11 μg of reporter plasmid (pNFκB-Luc; Stratagene Corporation) and 1.1 μg of pCMV β (CLONTECH Laboratories, Inc.) were mixed in 1.1 mL of OPTI-MEM I medium (GIBCO BRL) (solution (A)).
[…] of FuGENE 6 Transfection Reagent was mixed in 1.1 mL of OPTI-MEM I medium (solution (B)).
(§1) The above solution (A) and solution (B) were mixed, let them stand for 15 minutes at room temperature, then, 8.8 mL of OPTI-MEM I medium was added and diluted.
To this transfection solution, U2-OS cell suspension (11 mL) in McCoy's 5A medium (GIBCO BRL) containing 10% Fetal Bovine Serum (FBS; GIBCO BRL) at […] was added and well mixed.
(§2) 0.2 mL of the above solution was dispensed into each well of 96-well culture plates, and incubated for 24 hours (37° C., 5% CO2).
After removal of 50 μL of medium from each well, 50 μL of McCoy's 5A medium (serum-free) containing compound of the present application was added to a final concentration of 0.01˜2 μM (0.001, 0.01, 0.1, 0.5, 1 or 2 μM), and the plates were incubated for 2 hours (37° C., 5% CO2).
10 μL of the McCoy's 5A medium (serum-free) containing human TNF α (PEPROTECH EC Ltd.) was added to each well to achieve a final concentration of 10 ng/mL, and incubated for 8 hours (37° C., 5% CO2).
(§3) Medium was completely removed and plates were preserved at −80° C. until measurements.
(§4) Cell lysates were prepared by adding 40 μL of Passive Lysis Buffer (Promega Corporation) to each well.
(§5) 10 μL of each lysate was transferred to 96-well white plates. 50 μL of PicaGene L.T.2.0 (TOYO INK MFG. CO., LTD.) was added to each well, then, luminescence was measured after leaving for 10 minutes at room temperature.
(§6) 10 μL of each lysate was transferred to 96-well black plates. 100 μL of Z Buffer (preparation method will be explained later) was added to each well, and fluorescence was measured immediately.
(§7) 10 μL of each lysate was transferred to 96-well clear plates. 200 μL of protein assay reagent prepared from the BCA Protein Assay Kit (Pierce Biotechnology, Inc.) was added to each well, and, absorbance was measured after incubation for 30 minutes at 37° C.
(§8) For measurements of luminescence, fluorescence, and absorbance, microplate reader GENios (TECAN G.M.B.H.) was used.
(3) Calculation of Inhibition Rate
Luminescence values that show the degree of activation by TNF α stimulation were normalized by β-gal values that show transfection efficiency. Using the normalized values, the following calculation was carried out using the luminescence values that increased by TNF α stimulation. Inhibition Rate(%)=[…] E: In the presence of the compound of the present application, increased luminescence values by TNF α stimulation C: Without the presence of the compound of the present application, increased luminescence values by TNF α, stimulation
The values of protein assay by BCA reagent were used for a simple assessment of cytotoxicity, and not used for the calculation of inhibition rates.
NF-κB Inhibition Rates are shown below. The values in parentheses in the table represent the concentration of the compound of the present application.
NF-κB inhibition rates where the concentrations of the compound of the present application were 1, 0.1, 0.01 and 0.001 μM were calculated, and the 50% inhibitory concentrations (IC50) of the compounds of the present application against activation of NF-κB were evaluated.

STAT6 = STAT6 inhibition test: (GLS)x8/pTA-Luc luciferase reporter in U2-OS cells stimulated with human IL-4; type: cell-based; conditions: human IL-4 40 ng/mL; for Inhibition Rate of STAT6 (%) / inhibition at 2 µM: compound 2 μM, 8 hours; for IC50: from inhibition rates at 1, 0.1, 0.01 and 0.001 μM, read-out: IC50 against activation of STAT6; for inhibition at 2 µM: read-out: Inhibition Rate of STAT6 (%)
From the text: (1) Construction of a STAT6 Reporter Plasmid
The Oligonucleotides (SEQ ID: 1, 2) containing two copies of STAT6 binding sequences (refer to J. Biol. Chem., vol. 276, No. 9, pp. 6675-6688 (2001).) were synthesized, and integrated into the enhancer region of the reporter plasmid pTA-Luc Vector (CLONTECH Laboratories, Inc.) at the restriction enzyme BgIII site.
When the oligonucleotide is integrated in positive direction into the plasmid, the upstream BglII site is not reconstructed. Therefore, STAT6 binding sequences can be increased by repeating integration of the oligonucleotide at the restriction enzyme BglII site.
In the present test, a plasmid including eight integrated STAT6 binding sequences was constructed and provided for the reporter assay as (GLS)x8/pTA-Luc. Confirmation of the sequences was carried out using an automated fluorescence sequencer (Model 310 (Applied Biosystems)).
(2) Transfection into U2-OS Cells and Inhibition Test for STAT6 Activation
U2-OS cells were seeded to at 2×10^4 cells/well in 96-well culture plates, and transfection was carried out using FuGENE 6 Transfection Reagent (Roche Diagnostics GmbH). The procedures of the transfection are shown below.
11 μg of reporter plasmid ((GLS)x8/pTA-Luc) and 1.1 μg of pCMV β (CLONTECH Laboratories, Inc.) were mixed in 1.1 mL of OPTI-MEM I medium (GIBCO BRL) (solution (A)).
33 μL of FuGENE 6 Transfection Reagent was mixed in 1.1 mL of OPTI-MEM I medium (solution (B)).
as §1
To this transfection solution, U2-OS cell suspension (11 mL) in McCoy's 5A medium (GIBCO BRL) containing 10% Fetal Bovine Serum (FBS; GIBCO BRL) at 2×10^5 cells/mL was added and well mixed.
as §2
After removal of 50 μL of medium from each well, 50 μL of McCoy's 5A medium (serum-free) containing compound, of the present application was added to a final concentration of 0.01˜2 μM (0.001, 0.01, 0.1, 0.5, 1 or 2 μM), and the plates were incubated for 2 hours (37° C., 5% CO2).
10 μL of the McCoy's 5A medium (serum-free) containing human IL-4 (R&D Systems, Inc) was added to each well to achieve a final concentration of 40 ng/mL, and incubated for 8 hours (37° C., 5% CO2).
as §3, §4, §5, §6, §7, §8
(4) Calculation of Inhibition Rate
Luminescence values that show the degree of activation by IL-4 stimulation were normalized by β-gal values that show transfection efficiency. Using the normalized values, the following calculations were carried out using the luminescence values increased by IL-4 stimulation. Inhibition Rate(%)=[…] E: In the presence of the compound of the present application, increased luminescence value by IL-4 stimulation C: Without the presence of the compound of the present application, increased luminescence value by IL-4 stimulation […]

Compound	Inhibition Rate of NF-κB (%) (NF-κB)	Inhibition Rate of STAT6 (%) (STAT6)	IC50 (NF-κB)	IC50 (STAT6)	inhibition at 2 µM (NF-κB; U2OS)	IC50 (NF-κB; U2OS)	inhibition at 2 µM (STAT6; U2OS)	IC50 (STAT6; U2OS)
O=C(Nc1ccc(N2CCOCC2)c(C(F)(F)F)c1)c1cc(Cl)ccc1O [compound 3]	30 (2 μM) %	67 (2 μM) %	–	–	–	–	–	–
O=C(Nc1ccc(N2CCCCC2)c(C(F)(F)F)c1)c1cc(Cl)ccc1O [compound 4]	28 (2 μM) %	71 (2 μM) %	–	–	–	–	–	–
Cl.O=C(Nc1ccc(OC2CCNCC2)c(F)c1)c1cc(Cl)ccc1O [compound 32]	91 (2 μM) %	92 (2 μM) %	13.7 nM	5.88 nM	–	–	–	–
NC1CCN(c2ccc(NC(=O)c3cc(Cl)ccc3O)cc2F)CC1 [Compound 27]	–	–	–	–	95%	6.79 nM	98%	3.22 nM
CN1CCN(c2ccc(NC(=O)c3cc(F)ccc3O)cc2F)CC1.Cl [compound 59]	43 (2 μM) %	60 (2 μM) %	–	–	–	–	–	–
CN1CCCN(c2ccc(NC(=O)c3cc(Br)ccc3O)cc2F)CC1 [compound 86]	93 (2 μM) %	93 (2 μM) %	7.62 nM	10.8 nM	–	–	–	–
CCN1CCCN(c2ccc(NC(=O)c3cc(Cl)ccc3O)cc2F)CC1 [compound 53]	45 (2 μM) %	57 (2 μM) %	–	–	–	–	–	–
CNC1CCN(c2ccc(NC(=O)c3cc(Cl)ccc3O)cc2F)CC1 [Compound 68]	–	–	–	–	71%	63.6 nM	74%	40.4 nM
CC1CN(c2ccc(NC(=O)c3cc(Cl)ccc3O)cc2F)C(C)CN1.Cl.Cl (centres unmarked) [compound 85]	79 (2 μM) %	72 (2 μM) %	–	–	–	–	–	–
Cl.O=C(Nc1ccc(OCC2CCCNC2)c(F)c1)c1cc(Cl)ccc1O (centres unmarked) [compound 49]	87 (2 μM) %	84 (2 μM) %	28.4 nM	14.8 nM	–	–	–	–
O=C1CCN(c2ccc(NC(=O)c3cc(Cl)ccc3O)cc2F)CC1 [compound 39]	16 (2 μM) %	46 (2 μM) %	–	–	–	–	–	–
Cl.NCC1CCN(c2ccc(NC(=O)c3cc(Cl)ccc3O)cc2F)CC1 [compound 47]	95 (2 μM) %	96 (2 μM) %	14 nM	7.98 nM	–	–	–	–
CN1CCN(c2ccc(NC(=O)c3cc(Cl)ccc3O)cc2C#N)CC1 [compound 79]	59 (2 μM) %	59 (2 μM) %	–	–	–	–	–	–
CN1CCCN(c2ccc(NC(=O)c3cc(Cl)ccc3O)cc2F)CC1 [compound 34]	95 (2 μM) %	94 (2 μM) %	7.04 nM	3.22 nM	–	–	–	–
CN1CCC(Oc2ccc(NC(=O)c3cc(Cl)ccc3O)cc2F)CC1 [compound 24]	91 (2 μM) %	93 (2 μM) %	43.3 nM	36.8 nM	–	–	–	–
Cl.O=C(Nc1ccc(N2CCC(N3CCCC3)CC2)c(F)c1)c1cc(Cl)ccc1O [compound 15]	53 (2 μM) %	59 (2 μM) %	–	–	–	–	–	–
NC1CCN(c2ccc(NC(=O)c3cc(Cl)ccc3O)cc2F)C1 (centres unmarked) [compound 42]	24 (2 μM) %	41 (2 μM) %	–	–	–	–	–	–
Cl.NC1CCN(c2ccc(NC(=O)c3cc(Cl)ccc3O)cc2C(F)(F)F)CC1 [compound 74]	84 (2 μM) %	80 (2 μM) %	66.5 nM	105 nM	–	–	–	–
Cc1ccc(O)c(C(=O)Nc2ccc(N3CCN(C)CC3)c(F)c2)c1.Cl [compound 57]	62 (2 μM) %	75 (2 μM) %	–	–	–	–	–	–
CN1CCN(c2ccc(NC(=O)c3cc(Cl)ccc3O)cc2C(F)(F)F)CC1.Cl [compound 16]	86 (2 μM) %	92 (2 μM) %	89.1 nM	82.2 nM	–	–	–	–
NC1CCC(Oc2ccc(NC(=O)c3cc(Cl)ccc3O)cc2F)CC1 (centres unmarked) [compound 65]	20 (2 μM) %	42 (2 μM) %	–	–	–	–	–	–
